Measured values: patent US10660909B2, “Method for treating cancer using chemokine antagonists” (Syntrix Biosystems Inc., priority 2016, dated 2020)

How the values were obtained:
[1] = test system: C3Tag mouse model of breast cancer; experiment: C3Tag mouse model of breast cancer; type: in vivo; conditions: C3Tag mice; for median survival: SX-682 ~10 mg/day/mouse oral, CP 50 mg/kg ip weekly, up to 60 days, vehicle 18 days, FIG. 6
Description: The C31-T-antigen (C3Tag) mouse model is a validated model of human triple-negative basal cell breast cancer as shown by gene expression analysis (Maroulakou, 1994, Proc Natl Acad Sci, 91:11236-40, herein incorporated by reference). The expressed large T-antigen binds and inactivates the RB and p53 tumor suppressor genes, explaining why this model faithfully recapitulates human basal breast cancer, which also harbors RB and p53 inactivation. This model also has frequent K-Ras amplification and infrequent Ras mutations. Treatment regimens were started following tumor manifestation. SX-682 was given orally via medicated feed, at an approximate dose of 10 mg/day/mouse. Carboplatin (CP) was administered once weekly via intraperitoneal injection at a dose of 50 mg/kg.

[2] = test system: MDSCs isolated from blood of AOM/DSS-treated BALBc mice; experiment: GROα-mediated MDSC migration (transwell, flow cytometry count); type: cell-based, mouse; conditions: SX-682 0.1, 1 and 10 μM; GROα (CXCL1) 100 ng/ml; 12 hours; FIG. 2
Experimental: Using the of method of Katoh, 2013, Cancer Cell, 24:631-44 (herein incorporated by reference), to induce and isolate MDSCs, male BALBc mice were given a single intraperitoneal injection of azoxymethane (AOM, 10 mg/kg). Seven days later, these mice were given 4 cycles of water and water containing 1.25% dextran sulfate sodium (DSS). One cycle consisted of providing mice with regular drinking water for 7 days, followed by 1.25% aqueous DSS for 7 days, followed by regular drinking water for 7 days. MDSCs were isolated from femurs and blood of AOM/DSS-treated BALBc mice using the Myeloid-Derived Suppressor Cell Isolation Kit (Miltenyi Biotec) after lysis of red blood cells (RBC) according to the manufacturer's instructions. GROα (CXCL1) was placed in the bottom chamber of a 24-well plate at a concentration of 100 ng/ml. MDSCs isolated from blood of AOM/DSS-treated BALBc mice were seeded at a density of 1×10^6/well in the upper chamber (3 m, BD Falcon). After incubation for 12 hours, migrated cells were quantified by flow cytometry using CountBright Absolute Counting Beads (Molecular Probes). […] The test concentrations of SX-682 were 0.1, 1 and 10 μM, and the DMSO concentration was ≤1%.

[3] = test system: Lewis lung carcinoma (LLC); experiment: LLC syngeneic mouse model of lung cancer; type: in vivo; conditions: LLC mice; SX-682 50 mg/kg twice daily oral; anti-PD-1 100 μg twice weekly ip; treatment from day 18; N=5; FIG. 10
Experimental: The Lewis lung carcinoma (LLC) mouse model (Kellar, 2015, Biomed Res Int, 2015:621324, herein incorporated by reference) was used to evaluate the effect of SX-682 alone and in combination with anti-PD-1 antibody. LLC mouse […] cells were cultured, then mice were injected with 0.5×10^6 LLC cells on day 0, and on day 18 treatment was initiated. Mice were treated with vehicle (control), SX-682 alone (50 mg/kg twice daily, oral), anti-PD-1 alone (100 μg twice weekly, ip), or SX-682 in combination with anti-PD-1 (N=5 per cohort). SX-682 was used as a spray dried dispersion (Formulation Example 1), and was administered to mice via oral gavage as a suspension in 0.5% aq. methylcellulose. The results of this experiment can be seen in FIG. 10 and FIG. 11.

[4] = test system: 60 human tumor cell line panel; experiment: NCI 60 human tumor cell line panel, SRB growth inhibition; type: cell-based
Experimental: The chemokine CXCL8 and its receptors CXCR1 and CXCR2 have been identified as important mediators of cellular proliferation for a number of tumor cell types. To validate the relationship between CXCR1 and CXCR2 receptor antagonism and inhibition of tumor cell proliferation, SX-682 was evaluated against the 60 human tumor cell line panel at five concentration levels (0.01, 0.1, 1, 10, 100 μM) as performed by the Developmental Therapeutics Program at the National Cancer Institute (Shoemaker, 2006, Nat Rev Cancer, 6:813-23).
The human tumor cell lines of the cancer screening panel were grown in RPMI 1640 medium containing 5% fetal bovine serum and 2 mM L-glutamine. Cells were inoculated into 96 well microtiter plates in 100 μL at plating densities ranging from 5,000 to 40,000 cells/well depending on the doubling time of individual cell lines. After cell inoculation, the microtiter plates were incubated at 37° C., 5% CO2, 95% air and 100% relative humidity for 24 h prior to addition of SX-682.
After 24 h, two plates of each cell line are fixed in situ with TCA, to represent a measurement of the cell population for each cell line at the time of drug addition (Tz). SX-682 was solubilized in dimethyl sulfoxide at 400-fold the desired final maximum test concentration and stored frozen prior to use. At the time of SX-682 addition, an aliquot of frozen concentrate was thawed and diluted to twice the desired final maximum test concentration with complete medium containing 50 μg/ml gentamicin. Additional four, 10-fold or ½ log serial dilutions are made to provide a total of five drug concentrations plus control. Aliquots of 100 μl of these different drug dilutions were added to the appropriate microtiter wells already containing 100 μl of medium, resulting in the required final drug concentrations.
Following drug addition, the plates were incubated for an additional 48 h at 37° C., 5% CO2, 95% air, and 100% relative humidity. For adherent cells, the assay was terminated by the addition of cold TCA. Cells were fixed in situ by the gentle addition of 50 μl of cold 50% (w/v) TCA (final concentration, 10% TCA) and incubated for 60 minutes at 4° C. The supernatant was discarded, and the plates were washed five times with tap water and air dried. Sulforhodamine B (SRB) solution (100 μl) at 0.4% (w/v) in 1% acetic acid was added to each well, and plates were incubated for 10 minutes at room temperature. After staining, unbound dye was removed by washing five times with 1% acetic acid and the plates were air dried. Bound stain was subsequently solubilized with 10 mM TRIS, and the absorbance was read on an automated plate reader at a wavelength of 515 nm. For suspension cells, the methodology is the same except that the assay was terminated by fixing settled cells at the bottom of the wells by gently adding 50 μl of 80% TCA (final concentration, […]). Using the seven absorbance measurements (time zero, (Tz), control growth, (C), and test growth in the presence of drug at the five concentration levels (Ti)), the percentage growth was calculated at each of the drug concentrations levels. Percentage growth inhibition was calculated as: (Ti−Tz)/(C−Tz)×100 for concentrations for which Ti>/=Tz (Ti−Tz)/Tz×100 for concentrations for which Ti<Tz.
Three dose response parameters were calculated for each experimental agent. […] The drug concentration resulting in total growth inhibition (TGI) is calculated from Ti=Tz. The LC50 (concentration of drug resulting in a 50% reduction in the measured protein at the end of the drug treatment as compared to that at the beginning) indicating a net loss of cells following treatment is calculated from (Ti−Tz)/Tz×100=−50. Values are calculated for each of these three parameters if the level of activity is reached; however, if the effect is not reached or is exceeded, the value for that parameter is expressed as greater or less than the maximum or minimum concentration tested.

[5] = test system: B16-F10 mouse melanoma cells; experiment: B16-F10 syngeneic mouse model of melanoma; type: in vivo; conditions: B16-F10 mice; SX-682 50 mg/kg twice daily oral; anti-PD-1 100 μg twice weekly ip; treatment from day 18; N=4-5; FIG. 9
Experimental: The B16-F10 mouse model is a validated model of melanoma, Overwijk, 2001, Curr Protoc Immunol, Chapter 20: Units 20-21 (herein incorporated by reference). It was used to evaluate the effect of SX-682 alone and in combination with anti-PD1 antibody. B16-F10 mouse melanoma cells were cultured, then mice were injected with 0.5×10^6 B16-F10 cells on day 0, and treatment was initiated on day 18. Mice were treated with vehicle (control), SX-682 alone (50 mg/kg twice daily, oral), anti-PD-1 alone (100 μg twice weekly, ip), or SX-682 in combination with anti-PD-1 (N=4-5 per cohort). SX-682 was used as a spray dried dispersion (Formulation Example 1), and was administered to mice via oral gavage as a suspension in 0.5% aq methylcellulose. […] Data and error bars are the mean±SE.

[6] = test system: Pten^pc−/−p53^pc−/−Smad4^pc−/− mouse prostate tumors; experiment: Pten/p53/Smad4 triple knockout mouse model of castration resistant prostate cancer; type: in vivo; conditions: SX-682 50 mg/kg b.i.d. oral gavage; ICB 200 μg each anti-PD1 and anti-CTLA4 3×/week; 4-6 weeks; FIG. 12
Experimental: The genetically engineered Pten^pc−/−p53^pc−/−Smad4^pc−/− mouse is a prostate-specific PB promoter-driven (PB-Cre4) conditional triple knockout model (i.e., prostate-specific deletion of all three tumor suppressors, Pten, p53 and Smad4 occurs in the ‘prostate cancer’ or ‘pc’). […] SX-682 was used as a spray dried dispersion (Formulation Example 1), and was administered to mice via oral gavage as a suspension in 0.5% aq. methylcellulose. Treatment was continued for 4-6 weeks and prostate weights measured to determine tumor burden. […] Mean±SE.

[7] = test system: TRIA mouse model of melanoma; experiment: TRIA mouse model of melanoma; type: in vivo; conditions: TRIA mice; SX-682 oral via medicated feed ~10 mg/day/mouse; CP 50 mg/kg ip once weekly; FIG. 7 and 8
Experimental: The Tyrosine-Hras/Ink/Arf null (TRIA) is a validated mouse model of melanoma features an immuno-competent autochthonous tumor; Ras events are in >70% of all melanomas, and ˜50% lose the INK4a/ARF locus which, with B-RAF mutations, is the most common lesion of this cancer (Sharpless, 2016, Cancer Cell 29:832-45). Treatment regimens were started following tumor manifestation. SX-682 was given orally via medicated feed, at an approximate dose of 10 mg/day/mouse. Carboplatin (CP) was administered once weekly via intraperitoneal injection at a dose of 50 mg/kg.

[8] = test system: T11 mouse model of breast cancer; experiment: T11 mouse model of breast cancer; type: in vivo; conditions: T11 mice; SX-682 oral via medicated feed ~10 mg/day/mouse; CP 50 mg/kg ip once weekly; 1-2 weeks; N=7; P<0.0001; FIG. 4
Description: The T11 model is a validated mouse model of breast cancer, which derives from the serial orthotopic transplantation of a murine breast tumor derived from a p53-null mouse into a syngeneic p53 competent recipient, and features sporadic, somatic K-Ras mutation (Herschkowitz, 2012, Proc Natl Acad Sci, 109:2778-83, herein incorporated by reference). Tumors from the T11 model display an RNA expression pattern characteristic of the human claudin-low disease, and are extremely aggressive, with the majority of untreated animals surviving less than 21 days from the time of enrollment in the therapy studies. Treatment regimens were started following tumor manifestation. SX-682 was given orally via medicated feed, at an approximate dose of 10 mg/day/mouse. In brief, the medicated feed was prepared by Research Diets (New Brunswick, N.J.) by incorporating 15.2 grams of SX-682 spray dried dispersion (as prepared in Formulation Example 1) into 1042 grams of standard rodent diet with 10% kcals from fat. The medicated feed was formed into pellets. Carboplatin (CP) was administered once weekly via intraperitoneal injection at a dose of 50 mg/kg. […] Mean±SE. *** P<0.0001 (linear regression).

SMILES | tumor growth (tumor volume) ([1]; SX-682 oral via medicated feed ~10 mg/day/mouse, CP 50 mg/kg ip once weekly, 4-6 weeks, N=10-12, FIG. 5) | median survival [1] | inhibition of GROα-mediated MDSC migration [2] | tumor growth (tumor area) [3] | proliferation of human tumor cells ([4]; 60 cell lines, 0.01, 0.1, 1, 10, 100 μM, 48 h, FIG. 3A-3I) | inhibition of tumor cell proliferation, renal cancer cell lines ([4]; 786-0, CAK-1, TK-10, RXF 393, UO-31, ACHN, SN12C, FIG. 3G) | inhibition of tumor cell proliferation, non-small cell lung cancer cell lines ([4]; A549, H226, H460, H23, H522, H322M, HOP-62, HOP-92, FIG. 3B) | inhibition of tumor cell proliferation, leukemia cell lines ([4]; CCRF-CEM, MOLT-4, HL-60, RPMI-8226, K-562, SR, 10^−8 to 10^−4 M, FIG. 3A) | inhibition of tumor cell proliferation, colon cancer cell lines ([4]; COLO 205, HCT-15, HCC-2998, KM12, HCT-116, SW-620, FIG. 3C) | inhibition of tumor cell proliferation, ovarian cancer cell lines ([4]; IBROV1, OVCAR-8, OVCAR-3, NCI/ADR-RES, OVCAR-5, SK-OV-3, FIG. 3F) | inhibition of tumor cell proliferation, melanoma cell lines ([4]; LOX IMVI, MDA-MB-435, SK-MEL-5, MALME-3M, SK-MEL-2, UACC-257, M14, SK-MEL-28, UACC-62, FIG. 3E) | inhibition of tumor cell proliferation, breast cancer cell lines ([4]; MCF7, BT-549, MDA-MB-231, T-47D, HS 578T, MDA-MB-468, FIG. 3I) | inhibition of tumor cell proliferation, prostate cancer cell lines ([4]; PC-3, DU-145, FIG. 3H) | inhibition of tumor cell proliferation, CNS cancer cell lines ([4]; SF-268, SNB-19, SF-295, SNB-75, SF-539, FIG. 3D) | tumor growth (tumor area) [5] | tumor burden (prostate weight) [6] | tumor growth (tumor volume) [7] | tumor growth (tumor volume) [8]
O=C(Nc1ccc(F)cc1)c1cnc(SCc2cc(OC(F)(F)F)ccc2B(O)O)nc1 [SX-682] | significantly reduced tumor growth as compared to untreated controls | 28 days | effectively inhibit GROα-mediated MDSC migration in a dose-dependent manner | significantly slowed tumor growth | directly affect the proliferation of human tumor cells | direct inhibition of tumor cell proliferation | direct inhibition of tumor cell proliferation | direct inhibition of tumor cell proliferation | direct inhibition of tumor cell proliferation | direct inhibition of tumor cell proliferation | direct inhibition of tumor cell proliferation | direct inhibition of tumor cell proliferation | direct inhibition of tumor cell proliferation | direct inhibition of tumor cell proliferation | significantly slowed tumor growth | inhibited prostate cancer | significantly slowed tumor growth comparable to CP alone | effective therapy for breast cancer
N.N.O=C([O-])C1(C(=O)[O-])CCC1.[Pt+2] [carboplatin, reference compound] | – | 28 days | – | – | – | – | – | – | – | – | – | – | – | – | – | – | – | –
